Laboratory results: the kinase profiling compilation of Christmann-Franck et al. (2016)
Values belong to the compound of their own block, whether it stands above or below them.

How the values were obtained:
Assay in all cases: KINOMEscan competition binding
[1] = system: RET (human), P07949 [V804L]; conditions: compound 10.0 µM
[2] = target: JAK1 JH1 catalytic (human) (UniProt P23458); conditions: compound 10.0 µM
RIOK3 (human) = RIOK3 (human) (UniProt O14730); conditions: compound 10.0 µM
[3] = system: EGFR (human), P00533 [G719S]; conditions: compound 10.0 µM
PIM1 (human) = PIM1 (human) (UniProt P11309); conditions: for kinase still bound, per cent of control: compound 10.0 µM
RPS6KA1 KD2 (human) = RPS6KA1 KD2 (human) (UniProt Q15418); conditions: compound 10.0 µM
CSNK1D (human) = CSNK1D (human) (UniProt P48730); conditions: compound 10.0 µM
CSNK1E (human) = CSNK1E (human) (UniProt P49674); conditions: compound 10.0 µM
EPHA1 (human) = EPHA1 (human) (UniProt P21709); conditions: compound 10.0 µM
DAPK2 (human) = DAPK2 (human) (UniProt Q9UIK4); conditions: for kinase still bound, per cent of control: compound 10.0 µM
FER (human) = FER (human) (UniProt P16591); conditions: compound 10.0 µM
[4] = system: PIK3CA (human), P42336 [E545K]; conditions: compound 10.0 µM
FGFR4 (human) = FGFR4 (human) (UniProt P22455); conditions: compound 10.0 µM
DMPK (human) = DMPK (human) (UniProt Q09013); conditions: compound 10.0 µM
MAP3K12 (human) = MAP3K12 (human) (UniProt Q12852); conditions: compound 10.0 µM
EPHA6 (human) = EPHA6 (human) (UniProt Q9UF33); conditions: compound 10.0 µM
MAPK15 (human) = MAPK15 (human) (UniProt Q8TD08); conditions: for kinase still bound, per cent of control: compound 10.0 µM
MAPK14 (human) = MAPK14 (human) (UniProt Q16539); conditions: compound 10.0 µM
RPS6KA3 KD1 (human) = RPS6KA3 KD1 (human) (UniProt P51812); conditions: compound 10.0 µM
CSNK2A1 (human) = CSNK2A1 (human) (UniProt P68400); conditions: for kinase still bound, per cent of control: compound 10.0 µM
DDR1 (human) = DDR1 (human) (UniProt Q08345); conditions: compound 10.0 µM
STK10 (human) = STK10 (human) (UniProt O94804); conditions: compound 10.0 µM
SLK (human) = SLK (human) (UniProt Q9H2G2); conditions: compound 10.0 µM
STK33 (human) = STK33 (human) (UniProt Q9BYT3); conditions: compound 10.0 µM
CAMK1D (human) = CAMK1D (human) (UniProt Q8IU85); conditions: compound 10.0 µM
MYLK4 (human) = MYLK4 (human) (UniProt Q86YV6); conditions: for kinase still bound, per cent of control: compound 10.0 µM
ULK3 (human) = ULK3 (human) (UniProt Q6PHR2); conditions: compound 10.0 µM
AAK1 (human) = AAK1 (human) (UniProt Q2M2I8); conditions: compound 10.0 µM
IKBKB (human) = IKBKB (human) (UniProt O14920); conditions: compound 10.0 µM
CAMKK2 (human) = CAMKK2 (human) (UniProt Q96RR4); conditions: compound 10.0 µM
CSK (human) = CSK (human) (UniProt P41240); conditions: compound 10.0 µM
HIPK1 (human) = HIPK1 (human) (UniProt Q86Z02); conditions: compound 10.0 µM
MKNK1 (human) = MKNK1 (human) (UniProt Q9BUB5); conditions: compound 10.0 µM
ITK (human) = ITK (human) (UniProt Q08881); conditions: compound 10.0 µM
CDK7 (human) = CDK7 (human) (UniProt P50613); conditions: compound 10.0 µM
GSK3A (human) = GSK3A (human) (UniProt P49840); conditions: compound 10.0 µM
[5] = system: EGFR (human), P00533 [A750P; 747-749 del]; conditions: compound 10.0 µM
CLK2 (human) = CLK2 (human) (UniProt P49760); conditions: for kinase still bound, per cent of control: compound 10.0 µM
MYLK (human) = MYLK (human) (UniProt Q15746); conditions: compound 10.0 µM
NTRK3 (human) = NTRK3 (human) (UniProt Q16288); conditions: compound 10.0 µM
NEK6 (human) = NEK6 (human) (UniProt Q9HC98); conditions: compound 10.0 µM
LIMK2 (human) = LIMK2 (human) (UniProt P53671); conditions: compound 10.0 µM

Sequence of CLK2 (human) (P49760 whole entry, looked up): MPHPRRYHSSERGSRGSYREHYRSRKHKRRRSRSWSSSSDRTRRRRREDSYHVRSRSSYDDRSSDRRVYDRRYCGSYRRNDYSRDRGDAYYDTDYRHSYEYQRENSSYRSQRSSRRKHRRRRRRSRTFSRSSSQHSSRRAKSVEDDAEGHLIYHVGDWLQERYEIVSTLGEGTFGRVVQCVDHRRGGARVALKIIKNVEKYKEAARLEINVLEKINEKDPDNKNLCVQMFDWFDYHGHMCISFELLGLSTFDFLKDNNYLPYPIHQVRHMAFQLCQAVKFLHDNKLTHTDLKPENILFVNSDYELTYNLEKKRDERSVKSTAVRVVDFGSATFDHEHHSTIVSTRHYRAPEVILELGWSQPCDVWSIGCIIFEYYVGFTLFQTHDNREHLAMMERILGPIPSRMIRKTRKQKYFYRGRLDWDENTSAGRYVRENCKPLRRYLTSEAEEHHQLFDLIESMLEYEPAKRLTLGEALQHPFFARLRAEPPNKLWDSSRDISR
Sequence of HIPK1 (human) (Q86Z02 whole entry, looked up): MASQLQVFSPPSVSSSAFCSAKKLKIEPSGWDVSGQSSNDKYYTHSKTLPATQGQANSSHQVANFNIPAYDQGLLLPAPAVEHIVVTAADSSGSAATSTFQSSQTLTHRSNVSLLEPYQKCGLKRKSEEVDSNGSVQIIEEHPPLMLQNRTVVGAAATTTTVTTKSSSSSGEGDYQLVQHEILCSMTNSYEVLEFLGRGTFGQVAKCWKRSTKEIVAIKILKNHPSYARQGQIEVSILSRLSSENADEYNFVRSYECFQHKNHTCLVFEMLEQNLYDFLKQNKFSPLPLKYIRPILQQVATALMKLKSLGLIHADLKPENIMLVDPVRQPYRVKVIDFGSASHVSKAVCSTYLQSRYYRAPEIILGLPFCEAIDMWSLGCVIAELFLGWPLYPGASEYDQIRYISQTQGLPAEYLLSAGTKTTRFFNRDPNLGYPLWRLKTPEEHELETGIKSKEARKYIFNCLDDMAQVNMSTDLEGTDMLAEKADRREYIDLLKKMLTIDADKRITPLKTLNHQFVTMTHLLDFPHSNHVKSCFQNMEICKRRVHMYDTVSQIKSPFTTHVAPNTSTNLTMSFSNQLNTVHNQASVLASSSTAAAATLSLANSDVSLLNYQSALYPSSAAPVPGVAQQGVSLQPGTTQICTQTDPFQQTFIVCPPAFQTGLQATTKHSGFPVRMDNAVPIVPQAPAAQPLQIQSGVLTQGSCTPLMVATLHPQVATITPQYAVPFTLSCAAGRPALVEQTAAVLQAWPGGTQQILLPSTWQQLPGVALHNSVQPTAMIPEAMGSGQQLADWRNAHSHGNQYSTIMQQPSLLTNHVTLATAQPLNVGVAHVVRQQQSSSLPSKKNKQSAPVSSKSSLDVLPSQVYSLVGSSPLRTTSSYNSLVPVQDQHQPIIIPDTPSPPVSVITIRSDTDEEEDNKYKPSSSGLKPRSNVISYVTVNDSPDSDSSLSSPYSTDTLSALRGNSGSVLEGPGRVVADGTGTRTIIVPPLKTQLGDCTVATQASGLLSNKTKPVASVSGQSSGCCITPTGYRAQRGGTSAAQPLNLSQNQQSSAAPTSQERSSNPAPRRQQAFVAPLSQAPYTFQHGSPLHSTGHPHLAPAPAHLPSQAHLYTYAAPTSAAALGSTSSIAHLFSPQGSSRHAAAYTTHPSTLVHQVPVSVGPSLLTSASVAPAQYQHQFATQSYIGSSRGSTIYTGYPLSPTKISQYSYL
Sequence of MYLK (human) (Q15746 whole entry, looked up): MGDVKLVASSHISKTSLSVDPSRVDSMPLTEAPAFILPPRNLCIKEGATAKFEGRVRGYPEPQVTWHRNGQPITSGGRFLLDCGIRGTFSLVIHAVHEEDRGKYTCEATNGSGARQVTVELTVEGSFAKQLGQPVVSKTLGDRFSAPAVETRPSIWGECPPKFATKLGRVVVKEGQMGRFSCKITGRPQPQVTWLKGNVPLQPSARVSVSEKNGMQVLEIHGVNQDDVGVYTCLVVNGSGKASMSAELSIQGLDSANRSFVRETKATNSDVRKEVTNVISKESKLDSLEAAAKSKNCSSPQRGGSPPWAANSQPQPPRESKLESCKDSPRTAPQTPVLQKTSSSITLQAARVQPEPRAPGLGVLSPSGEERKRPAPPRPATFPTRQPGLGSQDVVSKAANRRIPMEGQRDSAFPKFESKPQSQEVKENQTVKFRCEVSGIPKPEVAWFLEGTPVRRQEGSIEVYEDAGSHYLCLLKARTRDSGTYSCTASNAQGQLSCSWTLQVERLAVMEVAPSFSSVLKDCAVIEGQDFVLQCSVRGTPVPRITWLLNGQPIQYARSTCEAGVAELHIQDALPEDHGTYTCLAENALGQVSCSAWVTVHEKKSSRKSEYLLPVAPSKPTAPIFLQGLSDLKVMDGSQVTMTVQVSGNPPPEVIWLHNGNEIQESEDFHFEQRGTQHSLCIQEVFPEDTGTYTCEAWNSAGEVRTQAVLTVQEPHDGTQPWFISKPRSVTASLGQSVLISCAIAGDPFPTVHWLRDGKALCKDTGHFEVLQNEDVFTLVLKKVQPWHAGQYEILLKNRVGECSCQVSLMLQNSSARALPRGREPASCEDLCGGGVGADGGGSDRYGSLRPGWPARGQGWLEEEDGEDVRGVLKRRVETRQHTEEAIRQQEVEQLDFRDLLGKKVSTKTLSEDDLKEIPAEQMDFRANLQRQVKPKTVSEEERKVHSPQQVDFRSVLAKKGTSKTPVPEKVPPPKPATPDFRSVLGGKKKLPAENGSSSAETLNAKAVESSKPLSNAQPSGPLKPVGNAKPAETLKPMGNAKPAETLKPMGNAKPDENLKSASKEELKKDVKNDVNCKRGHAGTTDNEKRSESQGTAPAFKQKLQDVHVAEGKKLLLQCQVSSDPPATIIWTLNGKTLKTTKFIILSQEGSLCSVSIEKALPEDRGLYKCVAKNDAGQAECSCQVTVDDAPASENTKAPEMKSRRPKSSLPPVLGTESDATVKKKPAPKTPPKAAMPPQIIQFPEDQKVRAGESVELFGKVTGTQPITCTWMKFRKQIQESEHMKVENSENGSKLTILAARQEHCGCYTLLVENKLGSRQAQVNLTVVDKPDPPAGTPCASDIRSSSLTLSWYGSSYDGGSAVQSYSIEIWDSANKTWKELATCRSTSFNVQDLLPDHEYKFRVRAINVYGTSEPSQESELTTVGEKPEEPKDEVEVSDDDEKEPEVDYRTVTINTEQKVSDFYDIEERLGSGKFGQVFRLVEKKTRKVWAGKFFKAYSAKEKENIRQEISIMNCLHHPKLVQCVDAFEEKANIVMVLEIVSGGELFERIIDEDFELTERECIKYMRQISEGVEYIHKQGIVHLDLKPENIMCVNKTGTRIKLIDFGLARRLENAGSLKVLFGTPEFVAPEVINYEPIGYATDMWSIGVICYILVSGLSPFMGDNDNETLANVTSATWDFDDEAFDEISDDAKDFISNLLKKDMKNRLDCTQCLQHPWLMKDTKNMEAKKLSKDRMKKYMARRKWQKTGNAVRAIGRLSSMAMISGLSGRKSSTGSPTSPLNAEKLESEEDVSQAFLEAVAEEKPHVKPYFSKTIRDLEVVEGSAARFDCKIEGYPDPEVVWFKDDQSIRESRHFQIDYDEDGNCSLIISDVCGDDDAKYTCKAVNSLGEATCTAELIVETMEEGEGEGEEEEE
Sequence of CDK7 (human) (P50613 whole entry, looked up): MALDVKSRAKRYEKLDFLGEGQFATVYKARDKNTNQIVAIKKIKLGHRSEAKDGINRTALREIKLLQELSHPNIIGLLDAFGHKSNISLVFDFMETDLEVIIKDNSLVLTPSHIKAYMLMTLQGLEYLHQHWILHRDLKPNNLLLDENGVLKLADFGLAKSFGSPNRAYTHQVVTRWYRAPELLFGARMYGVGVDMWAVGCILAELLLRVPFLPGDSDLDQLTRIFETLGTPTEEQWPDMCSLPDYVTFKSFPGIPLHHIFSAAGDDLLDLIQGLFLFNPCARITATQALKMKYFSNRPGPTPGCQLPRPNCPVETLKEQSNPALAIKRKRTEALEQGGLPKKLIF
Sequence of NEK6 (human) (Q9HC98 whole entry, looked up): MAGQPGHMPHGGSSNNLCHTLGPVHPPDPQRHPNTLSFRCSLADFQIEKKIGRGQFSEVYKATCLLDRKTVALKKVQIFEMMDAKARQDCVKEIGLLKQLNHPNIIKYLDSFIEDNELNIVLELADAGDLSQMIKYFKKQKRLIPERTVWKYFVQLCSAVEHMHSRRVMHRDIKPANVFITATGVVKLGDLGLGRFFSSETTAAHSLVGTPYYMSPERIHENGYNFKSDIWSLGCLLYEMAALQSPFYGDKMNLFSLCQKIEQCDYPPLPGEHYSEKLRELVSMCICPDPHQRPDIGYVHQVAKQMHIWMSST
Sequence of GSK3A (human) (P49840 whole entry, looked up): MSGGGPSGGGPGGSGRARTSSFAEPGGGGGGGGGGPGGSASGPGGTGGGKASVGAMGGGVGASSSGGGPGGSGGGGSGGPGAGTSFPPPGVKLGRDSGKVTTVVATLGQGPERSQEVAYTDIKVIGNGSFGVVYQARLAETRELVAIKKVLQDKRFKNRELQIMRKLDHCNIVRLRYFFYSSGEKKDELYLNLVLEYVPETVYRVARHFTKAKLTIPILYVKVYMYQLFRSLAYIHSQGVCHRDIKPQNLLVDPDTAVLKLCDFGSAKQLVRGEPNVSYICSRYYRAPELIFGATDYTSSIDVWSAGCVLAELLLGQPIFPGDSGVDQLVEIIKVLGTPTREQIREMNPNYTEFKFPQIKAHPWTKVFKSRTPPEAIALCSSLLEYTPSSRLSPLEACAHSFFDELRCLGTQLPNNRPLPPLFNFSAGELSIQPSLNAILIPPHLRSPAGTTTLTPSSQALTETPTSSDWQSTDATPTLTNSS
Sequence of PIM1 (human) (P11309 whole entry, looked up): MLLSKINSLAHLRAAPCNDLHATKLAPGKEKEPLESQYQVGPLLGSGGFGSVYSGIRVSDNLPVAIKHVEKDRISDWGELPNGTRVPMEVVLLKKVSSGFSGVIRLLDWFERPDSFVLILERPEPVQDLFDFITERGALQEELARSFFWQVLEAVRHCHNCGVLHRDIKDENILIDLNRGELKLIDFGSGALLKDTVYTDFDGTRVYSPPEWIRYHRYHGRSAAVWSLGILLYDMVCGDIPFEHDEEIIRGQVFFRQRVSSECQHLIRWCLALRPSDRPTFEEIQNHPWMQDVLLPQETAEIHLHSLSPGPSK

kinase still bound, per cent of control [1]: 100%
kinase still bound, per cent of control [2]: 100%
kinase still bound, per cent of control (RIOK3 (human)): 71%
kinase still bound, per cent of control [3]: 95%
kinase still bound, per cent of control (PIM1 (human)): 100%
kinase still bound, per cent of control (RPS6KA1 KD2 (human)): 94%
kinase still bound, per cent of control (CSNK1D (human)): 85%
kinase still bound, per cent of control (CSNK1E (human)): 89%
kinase still bound, per cent of control (EPHA1 (human)): 100%
kinase still bound, per cent of control (DAPK2 (human)): 100%
kinase still bound, per cent of control (FER (human)): 72%
kinase still bound, per cent of control [4]: 99%
kinase still bound, per cent of control (FGFR4 (human)): 100%
kinase still bound, per cent of control (DMPK (human)): 100%
kinase still bound, per cent of control (MAP3K12 (human)): 87%
kinase still bound, per cent of control (EPHA6 (human)): 100%
kinase still bound, per cent of control (MAPK14 (human)): 100%
kinase still bound, per cent of control (RPS6KA3 KD1 (human)): 100%
kinase still bound, per cent of control (CSNK2A1 (human)): 100%
kinase still bound, per cent of control (DDR1 (human)): 100%
kinase still bound, per cent of control (STK10 (human)): 100%
kinase still bound, per cent of control (SLK (human)): 100%
kinase still bound, per cent of control (STK33 (human)): 100%
kinase still bound, per cent of control (CAMK1D (human)): 100%
kinase still bound, per cent of control (MYLK4 (human)): 100%
kinase still bound, per cent of control (ULK3 (human)): 100%
kinase still bound, per cent of control (AAK1 (human)): 100%
kinase still bound, per cent of control (IKBKB (human)): 100%
kinase still bound, per cent of control (CAMKK2 (human)): 97%
kinase still bound, per cent of control (CSK (human)): 100%
kinase still bound, per cent of control (HIPK1 (human)): 100%
kinase still bound, per cent of control (MKNK1 (human)): 100%
kinase still bound, per cent of control (ITK (human)): 100%
kinase still bound, per cent of control (CDK7 (human)): 74%
kinase still bound, per cent of control (GSK3A (human)): 100%
kinase still bound, per cent of control [5]: 100%
kinase still bound, per cent of control (CLK2 (human)): 96%
kinase still bound, per cent of control (MYLK (human)): 92%
kinase still bound, per cent of control (NTRK3 (human)): 84%
kinase still bound, per cent of control (NEK6 (human)): 100%
kinase still bound, per cent of control (LIMK2 (human)): 100%
SMILES: CN1CCN(c2ccc(C(=O)Nc3ncc4c(n3)N(C)c3ccccc3C(=O)N4C)cc2)CC1
kinase still bound, per cent of control (MAPK15 (human)): 100%

kinase still bound, per cent of control [1]: 23%
kinase still bound, per cent of control (RIOK3 (human)): 2.2%
kinase still bound, per cent of control [3]: 26%
kinase still bound, per cent of control (PIM1 (human)): 0.7%
kinase still bound, per cent of control (RPS6KA1 KD2 (human)): 11%
kinase still bound, per cent of control (CSNK1D (human)): 3.4%
kinase still bound, per cent of control (CSNK1E (human)): 1.4%
kinase still bound, per cent of control (DAPK2 (human)): 7.4%
kinase still bound, per cent of control (CSNK2A1 (human)): 6.4%
kinase still bound, per cent of control (STK33 (human)): 12%
kinase still bound, per cent of control (CAMK1D (human)): 9%
Kd (MYLK4 (human)): 55 nM
kinase still bound, per cent of control (MYLK4 (human)): 0.05%
kinase still bound, per cent of control (AAK1 (human)): 1.1%
kinase still bound, per cent of control (IKBKB (human)): 26%
kinase still bound, per cent of control (CAMKK2 (human)): 7.4%
kinase still bound, per cent of control (CSK (human)): 12%
kinase still bound, per cent of control (MKNK1 (human)): 0.8%
kinase still bound, per cent of control (CDK7 (human)): 14%
kinase still bound, per cent of control (GSK3A (human)): 14%
kinase still bound, per cent of control (CLK2 (human)): 1.6%
kinase still bound, per cent of control (MYLK (human)): 19%
kinase still bound, per cent of control (NEK6 (human)): 31%
SMILES: N=C1NC(=O)/C(=C/c2ccc(-c3cncc4ccccc34)o2)S1
kinase still bound, per cent of control (MAPK15 (human)): 10%

kinase still bound, per cent of control (RIOK3 (human)): 5.5%
kinase still bound, per cent of control [3]: 27%
kinase still bound, per cent of control (PIM1 (human)): 2.7%
kinase still bound, per cent of control (RPS6KA1 KD2 (human)): 2.6%
kinase still bound, per cent of control (CSNK1E (human)): 7%
kinase still bound, per cent of control (DAPK2 (human)): 9.3%
kinase still bound, per cent of control (CSNK2A1 (human)): 3.2%
kinase still bound, per cent of control (CAMK1D (human)): 28%
kinase still bound, per cent of control (MYLK4 (human)): 0.25%
kinase still bound, per cent of control (AAK1 (human)): 4.7%
kinase still bound, per cent of control (CAMKK2 (human)): 14%
kinase still bound, per cent of control (CSK (human)): 33%
kinase still bound, per cent of control (HIPK1 (human)): 3.4%
kinase still bound, per cent of control (MKNK1 (human)): 33%
kinase still bound, per cent of control (CLK2 (human)): 3.1%
kinase still bound, per cent of control (NTRK3 (human)): 32%
kinase still bound, per cent of control (NEK6 (human)): 24%
SMILES: O=C1NC(=S)S/C1=C\c1ccc(-c2cncc3ccccc23)o1
kinase still bound, per cent of control (MAPK15 (human)): 9%

kinase still bound, per cent of control [1]: 70%
kinase still bound, per cent of control [2]: 24%
kinase still bound, per cent of control (RIOK3 (human)): 3.4%
kinase still bound, per cent of control [3]: 58%
Kd (PIM1 (human)): 37 nM
kinase still bound, per cent of control (PIM1 (human)): 0.95%
kinase still bound, per cent of control (RPS6KA1 KD2 (human)): 34%
kinase still bound, per cent of control (CSNK1D (human)): 13%
kinase still bound, per cent of control (CSNK1E (human)): 11%
kinase still bound, per cent of control (EPHA1 (human)): 100%
Kd (DAPK2 (human)): 6.1 nM
kinase still bound, per cent of control (DAPK2 (human)): 0.5%
kinase still bound, per cent of control (FER (human)): 100%
kinase still bound, per cent of control [4]: 37%
kinase still bound, per cent of control (FGFR4 (human)): 93%
kinase still bound, per cent of control (DMPK (human)): 3.6%
kinase still bound, per cent of control (MAP3K12 (human)): 76%
kinase still bound, per cent of control (EPHA6 (human)): 97%
kinase still bound, per cent of control (MAPK14 (human)): 100%
kinase still bound, per cent of control (RPS6KA3 KD1 (human)): 42%
Kd (CSNK2A1 (human)): 31 nM
kinase still bound, per cent of control (CSNK2A1 (human)): 0.65%
kinase still bound, per cent of control (DDR1 (human)): 100%
kinase still bound, per cent of control (STK10 (human)): 33%
kinase still bound, per cent of control (SLK (human)): 29%
kinase still bound, per cent of control (STK33 (human)): 2.7%
kinase still bound, per cent of control (CAMK1D (human)): 48%
kinase still bound, per cent of control (ULK3 (human)): 100%
kinase still bound, per cent of control (AAK1 (human)): 2.4%
kinase still bound, per cent of control (IKBKB (human)): 84%
kinase still bound, per cent of control (CAMKK2 (human)): 31%
kinase still bound, per cent of control (CSK (human)): 80%
kinase still bound, per cent of control (HIPK1 (human)): 3.5%
kinase still bound, per cent of control (MKNK1 (human)): 80%
kinase still bound, per cent of control (ITK (human)): 89%
kinase still bound, per cent of control (CDK7 (human)): 5.6%
kinase still bound, per cent of control (GSK3A (human)): 75%
kinase still bound, per cent of control [5]: 56%
Kd (CLK2 (human)): 150 nM
kinase still bound, per cent of control (CLK2 (human)): 0%
kinase still bound, per cent of control (MYLK (human)): 42%
kinase still bound, per cent of control (NTRK3 (human)): 88%
kinase still bound, per cent of control (NEK6 (human)): 100%
kinase still bound, per cent of control (LIMK2 (human)): 82%
SMILES: O=C1NC(=O)/C(=C/c2c[nH]c(=O)c(-c3ccc(N4CCNCC4)nc3)c2)S1
Kd (MAPK15 (human)): 390 nM
kinase still bound, per cent of control (MAPK15 (human)): 0.5%
